From patent US20240207258A1, “HETEROCYCLIC PDK1 INHIBITORS FOR USE TO TREAT CANCER” (Viracta Therapeutics, Inc., priority 2015, published 2024)
pEC50: −log10 of the molar value.

Tests used:
[1] = molecular target: T1, Full-length phosphorylated PDK1 (Homo sapiens, UniProt O15530); test: Fluorescence polarization PIF-tide binding assay; details: PDK1 saturating amounts of compound, FIG. 13C
T1 sequence (O15530 1-556): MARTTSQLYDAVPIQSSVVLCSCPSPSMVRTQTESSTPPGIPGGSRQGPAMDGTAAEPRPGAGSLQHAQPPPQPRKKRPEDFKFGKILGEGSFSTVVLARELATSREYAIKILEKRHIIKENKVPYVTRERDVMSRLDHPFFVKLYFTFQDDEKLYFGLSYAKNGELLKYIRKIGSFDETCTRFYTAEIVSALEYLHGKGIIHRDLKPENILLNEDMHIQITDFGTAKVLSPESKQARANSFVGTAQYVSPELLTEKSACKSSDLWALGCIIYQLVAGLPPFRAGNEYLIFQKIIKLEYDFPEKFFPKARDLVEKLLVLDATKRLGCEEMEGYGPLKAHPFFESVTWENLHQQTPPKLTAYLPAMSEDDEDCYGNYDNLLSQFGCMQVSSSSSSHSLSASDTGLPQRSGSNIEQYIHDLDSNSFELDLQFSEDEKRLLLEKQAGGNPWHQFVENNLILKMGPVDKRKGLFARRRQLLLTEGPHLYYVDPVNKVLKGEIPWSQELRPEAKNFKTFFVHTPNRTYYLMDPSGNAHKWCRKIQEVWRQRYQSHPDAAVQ

Jeko = test: MTS cell proliferation assay, Jeko; type: cell-based; details: Homo sapiens, 72 hr
Description: (§1) Cell proliferation was measured using the CellTiter 96 Aqueous Non-Radioactive Cell Proliferation Assay (Promega). The CellTiter 96® AQueous Assay is composed of solutions of a tetrazolium compound [3-(4,5-dimethylthiazol-2-yl)-5-(3-carboxymethoxyphenyl)-2-(4-sulfophenyl)-2H-tetrazolium, inner salt; MTS] and an electron coupling reagent (phenazine methosulfate) PMS. MTS is bioreduced by cells into a formazan product that is soluble in tissue culture medium. The absorbance of the formazan product at 490 nm can be measured directly from assay plates without additional processing. The quantity of formazan product as measured by the amount of 490 nm absorbance is directly proportional to the number of living cells in culture. Cells were seeded into 96-well or 384-well clear plates in a volume of 200 μL (96-well) or 50 μL (384-well) at optimized densities ranging from 1,000 to 40,000 cells per well for 96-well plates or 1,200 to 25,000 cells per well for 384-well plates depending on cell-line. After 4-6 hr recovery, serially diluted compounds in DMSO were added to the cells using (0.1% v/v final DMSO concentration). Cells were then grown at 37° C. in a humidified incubator with 5% CO2 for 72 hr. A 20:1 [3-(4,5-dimethylthiazol-2-yl)-5-(3-carboxymethoxyphenyl)-2-(4-sulfophenyl)-2H-tetrazolium](MTS):phenazine methosulfate (PMS) solution in DPBS was made immediately before use, added to each well, and cells were incubated for 1.5 hr at 37° C. The absorbance at 490 nm was then measured using a platereader. Absorbance values were normalized as percent of control (cells incubated in the presence of 0.1% v/v DMSO). Sigmoidal dose-response curves were plotted using log(inhibitor) vs. response—Variable slope (four parameters) model with a top value constrained to 100% (GraphPad Prism version 6.00 for Windows, GraphPad Software, La Jolla California USA). […] Curves for compounds that reached a plateau were matched exactly to the measurement points. […] To determine potential of compounds of the invention to affect viability of hematological cancers, cell lines representing various tumor types were selected and tested. Human cell lines tested were: MOLM-13 (acute myeloid leukemia (AML)), MV4-11 (AML), U-2932 (ABC-diffuse large B cell lymphoma), U-937 (histiocytic lymphoma), U-266 (multiple myeloma), RPMI-8226 (multiple myeloma), CMK (megakaryoblastic cell line), SU-DHL-4 (GCB-diffuse large B cell lymphoma), KG1 (AML), Mec-1 (chronic B-cell leukemia), MOLM-16 (AML), Jeko (B-cell lymphoma), WSU-DLCL2 (B-cell lymphoma), JJN3 (plasma cell leukemia), SU-DHL-6 (GCB-diffuse large B cell lymphoma), and Z-138 (mantle cell lymphoma). In addition, two murine cell lines were tested: A20 […].

Mec-1 = test: MTS cell proliferation assay, Mec-1; type: cell-based; details: Homo sapiens, MEC1; Mec-1, 72 hr
Description: (§2) Cell proliferation was measured using the CellTiter 96 Aqueous Non-Radioactive Cell Proliferation Assay (Promega). The CellTiter 96® AQueous Assay is composed of solutions of a tetrazolium compound [3-(4,5-dimethylthiazol-2-yl)-5-(3-carboxymethoxyphenyl)-2-(4-sulfophenyl)-2H-tetrazolium, inner salt; MTS] and an electron coupling reagent (phenazine methosulfate) PMS. MTS is bioreduced by cells into a formazan product that is soluble in tissue culture medium. The absorbance of the formazan product at 490 nm can be measured directly from assay plates without additional processing. The quantity of formazan product as measured by the amount of 490 nm absorbance is directly proportional to the number of living cells in culture. Cells were seeded into 96-well or 384-well clear plates in a volume of 200 μL (96-well) or 50 μL (384-well) at optimized densities ranging from 1,000 to 40,000 cells per well for 96-well plates or 1,200 to 25,000 cells per well for 384-well plates depending on cell-line. After 4-6 hr recovery, serially diluted compounds in DMSO were added to the cells using (0.1% v/v final DMSO concentration). Cells were then grown at 37° C. in a humidified incubator with 5% CO2 for 72 hr. A 20:1 [3-(4,5-dimethylthiazol-2-yl)-5-(3-carboxymethoxyphenyl)-2-(4-sulfophenyl)-2H-tetrazolium](MTS):phenazine methosulfate (PMS) solution in DPBS was made immediately before use, added to each well, and cells were incubated for 1.5 hr at 37° C. The absorbance at 490 nm was then measured using a platereader. Absorbance values were normalized as percent of control (cells incubated in the presence of 0.1% v/v DMSO). Sigmoidal dose-response curves were plotted using log(inhibitor) vs. response—Variable slope (four parameters) model with a top value constrained to 100% (GraphPad Prism version 6.00 for Windows, GraphPad Software, La Jolla California USA). […] Curves for compounds that reached a plateau were matched exactly to the measurement points. […]

U-2932 = test: MTS cell proliferation assay, U-2932; type: cell-based; details: Homo sapiens, U2932; U-2932, 72 hr
Description: as §1

SU-DHL-4 = test: MTS cell proliferation assay, SU-DHL-4; type: cell-based; details: Homo sapiens; SU-DHL-4, 72 hr
Description: as §2

MV4-11 = test: MTS cell proliferation assay, MV4-11; type: cell-based, human; details: Homo sapiens; MV4-11, 72 hr; read-out: MTS proliferation assay
Description: Cell proliferation was measured using the CellTiter 96 Aqueous Non-Radioactive Cell Proliferation Assay (Promega). […] MTS is bioreduced by cells into a formazan product that is soluble in tissue culture medium. The absorbance of the formazan product at 490 nm can be measured directly from assay plates without additional processing. The quantity of formazan product as measured by the amount of 490 nm absorbance is directly proportional to the number of living cells in culture. Cells were seeded into 96-well or 384-well clear plates in a volume of 200 μL (96-well) or 50 μL (384-well) at optimized densities ranging from 1,000 to 40,000 cells per well for 96-well plates or 1,200 to 25,000 cells per well for 384-well plates depending on cell-line. After 4-6 hr recovery, serially diluted compounds in DMSO were added to the cells using (0.1% v/v final DMSO concentration). Cells were then grown at 37° C. in a humidified incubator with 5% CO2 for 72 hr. A 20:1 [3-(4,5-dimethylthiazol-2-yl)-5-(3-carboxymethoxyphenyl)-2-(4-sulfophenyl)-2H-tetrazolium](MTS):phenazine methosulfate (PMS) solution in DPBS was made immediately before use, added to each well, and cells were incubated for 1.5 hr at 37° C. The absorbance at 490 nm was then measured using a platereader. Absorbance values were normalized as percent of control (cells incubated in the presence of 0.1% v/v DMSO). Sigmoidal dose-response curves were plotted using log(inhibitor) vs. response—Variable slope (four parameters) model with a top value constrained to 100% (GraphPad Prism version 6.00 for Windows, GraphPad Software, La Jolla California USA). […] To determine potential of compounds of the invention to affect viability of hematological cancers, cell lines representing various tumor types were selected and tested. […] In addition, two murine cell lines were tested: A20 […].

MOLM-16 = test: MTS cell proliferation assay, MOLM-16; type: cell-based; details: Homo sapiens, MOLM16; MOLM-16, 72 hr
Description: as §2

Z-138 = test: MTS cell proliferation assay, Z-138; type: cell-based; details: Homo sapiens; Z-138, 72 hr
Description: as §2

[2] = test system: hematologic tumor cell lines; test: MTS cell proliferation assay, panel of hematologic cancer cell lines; type: cell-based; details: range against the various cell lines of Table 1; read-out: inhibition of cell proliferation EC50
Description: as §1

SU-DHL-6 = test: MTS cell proliferation assay, SU-DHL-6; type: cell-based; details: Homo sapiens; SU-DHL-6, 72 hr
Description: as §2

U-266 = test: MTS cell proliferation assay, U-266; type: cell-based; details: Homo sapiens; U-266, 72 hr
Description: as §2

RPMI-8226 = test: MTS cell proliferation assay, RPMI-8226; type: cell-based; details: Homo sapiens; RPMI-8226, 72 hr
Description: as §1

KG1 = test: MTS cell proliferation assay, KG1; type: cell-based; details: Homo sapiens, KG-1; KG1, 72 hr
Description: as §2

WSU-DLCL2 = test: MTS cell proliferation assay, WSU-DLCL2; type: cell-based; details: Homo sapiens, WSUDLCL2; WSU-DLCL2, 72 hr
Description: as §2

JJN3 = test: MTS cell proliferation assay, JJN3; type: cell-based; details: Homo sapiens, JJN-3; JJN3, 72 hr
Description: as §2

U-937 = test: MTS cell proliferation assay, U-937; type: cell-based; details: Homo sapiens; U-937, 72 hr
Description: as §2

Molm-13 = test: MTS cell proliferation assay, Molm-13; type: cell-based; details: Homo sapiens; Molm-13, 72 hr
Description: as §1

CMK = test: MTS cell proliferation assay, CMK; type: cell-based; details: Homo sapiens, 72 hr
Description: as §2

| pEC50 (SU-DHL-4) | pEC50 (MV4-11) | pEC50 (MOLM-16) | pEC50 [2] | pEC50 (SU-DHL-6) | pEC50 (RPMI-8226) | pEC50 (U-937) | pEC50 (Molm-13) | Structure (SMILES) | PIF-tide binding to PDK1 (fluorescence polarization, words) [1] | pEC50 (Jeko) | pEC50 (Mec-1) | pEC50 (U-2932) | pEC50 (Z-138) | pEC50 (U-266) | pEC50 (KG1) | pEC50 (WSU-DLCL2) | pEC50 (JJN3) | pEC50 (CMK) |
| --- | --- | --- | --- | --- | --- | --- | --- | --- | --- | --- | --- | --- | --- | --- | --- | --- | --- | --- |
|  |  |  |  |  |  |  |  | O=C(NCCCNc1nc(Nc2cccc(NC(=O)N3CCCC3)c2)ncc1I)c1cccs1 [BX-795, reference compound] | no interference with PIF-tide binding |  |  |  |  |  |  |  |  |  |
| 6.39 | 7.92 | 6.54 | 6.07 to 8.52 | 6.34 | 6.70 | 6.95 | 8.30 | C[C@H](NC(=O)c1nc(C#N)cnc1NCc1ccc(-c2cnc3[nH]nc(N)c3c2)cc1)c1ccc(F)c(F)c1 [Compound 3, 3-[4-(3-Amino-1H-pyrazolo[3,4-b]pyridin-5-yl)-benzylamino]-6-cyano-pyrazine-2-carboxylic acid [1-(3,4-difluoro-phenyl)-ethyl]-amide] | significant inhibition of PIF-tide binding | 6.60 | 6.39 | 6.94 | 6.12 | 6.84 | 6.71 | 6.32 | 6.07 | 6.56 |
